Starred links: 1 amine or outer side, 2 acyl side, 3 side chain; linkers in the order of their positions; H or OH if unused. Positions of bridges follow the written chain, without caps; N, C: chain ends. Residues, ends and D or L forms follow the SMILES beside them. *: point of attachment. C20 diacid = O=C(O)CCCCCCCCCCCCCCCCCCC(=O)*; γGlu = O=C(O)[C@H](CCC(=O)[*:2])N[*:1]
Columns and labels:
[1] = Assay (III) ThT fibrillation assay for physical stability; assay type: physicochemical
How it was run: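 Freshly prepared formulations, pH-adjusted, with 1 μM ThT; four or eight replicates incubated at 37 °C under 960 rpm orbital shaking. Fluorescence (ex 444/em 485 nm) read every 20 min; […]. Peptide concentration measured by RP-HPLC before and after the run.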

[2] = system: food intake; test: Assay (I) efficacy testing on appetite (food intake), ad libitum fed rat model; assay type: in vivo, Sprague Dawley (SD) rats; details: 3 nmol/kg
How it was run: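 Food consumption was logged per animal every hour up to 7 h and again at 24 h (occasionally 48 h) after a single 0.01–3 mg/kg dose, given sc, po or ip at dark-phase onset. Ad libitum fed SD rats, 200–250 g, kept on inverted light/dark cycle; vehicle group included, outliers removed by Grubbs test.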

| SMILES | ThT pH 4.0 lag time ([1]; Table 8) [h] | ThT pH 4.0 lag time ([1]; Table 9) [h] | ThT pH 4.0 lag time ([1]; ThT fibrillation assay) [h] | ThT pH 4.0 lag time (h) ([1]; ThT fibrillation assay) | Food intake reduction 0-24 h 3 nmol/kg (%) [2] [%] | Food intake reduction 24-48 h 3 nmol/kg (%) [2] [%] |
| --- | --- | --- | --- | --- | --- | --- |
| CC[C@H](C)[C@H](NC(=O)[C@@H]1CCCN1C(=O)CNC(=O)[C@H](Cc1ccccc1)NC(=O)[C@H](CC(N)=O)NC(=O)[C@H](CC(N)=O)NC(=O)[C@H](CO)NC(=O)[C@H](CO)NC(=O)[C@H](Cc1c[nH]cn1)NC(=O)[C@H](CCCNC(=N)N)NC(=O)[C@H](CC(C)C)NC(=O)[C@H](Cc1ccccc1)NC(=O)[C@H](CCC(=O)O)NC(=O)[C@H](C)NC(=O)[C@H](CC(C)C)NC(=O)[C@H](CCCNC(=N)N)NC(=O)[C@H](CCC(N)=O)NC(=O)[C@@H](NC(=O)[C@H](C)NC(=O)[C@@H]1CSSC[C@H](NC(=O)[C@H](CCCCN)NC(=O)CC[C@H](NC(=O)CCCCCCCCCCCCCCCCCCC(=O)O)C(=O)O)C(=O)N[C@@H](CC(N)=O)C(=O)N[C@@H]([C@@H](C)O)C(=O)N[C@@H](C)C(=O)N[C@@H]([C@@H](C)O)C(=O)N1)[C@@H](C)O)C(=O)N[C@@H](CC(C)C)C(=O)N1CCC[C@H]1C(=O)N1CCC[C@H]1C(=O)N[C@H](C(=O)N[C@@H](CC(N)=O)C(=O)N[C@H](C(=O)NCC(=O)N[C@@H](CO)C(=O)N[C@@H](Cc1c[nH]cn1)C(=O)N[C@H](C(=O)N[C@@H](Cc1ccc(O)cc1)C(N)=O)[C@@H](C)O)C(C)C)[C@@H](C)O [Example 57, N-alpha-[(S)-4-Carboxy-4-(19-carboxynonadecanoylamino)butyryl]-[Glu14,Arg17,His35]-pramlintide] ({C20 diacid-γGlu}-KCNTATCATQRLAEFLRHSSNNFGPILPPTNVGSHTY-NH2; disulfide 2-7 (inferred); C-terminus assumed) | >45 | >45 | >45 | >45 | 17 | 0 |
| CC[C@H](C)[C@H](NC(=O)[C@@H]1CCCN1C(=O)CNC(=O)[C@H](Cc1ccccc1)NC(=O)[C@H](CC(N)=O)NC(=O)[C@H](CC(N)=O)NC(=O)[C@H](CO)NC(=O)[C@H](CO)NC(=O)[C@H](CCCNC(=N)N)NC(=O)[C@@H](NC(=O)[C@H](CC(C)C)NC(=O)[C@H](Cc1ccccc1)NC(=O)[C@H](CCC(=O)O)NC(=O)[C@H](C)NC(=O)[C@H](CC(C)C)NC(=O)[C@H](CCCNC(=N)N)NC(=O)[C@H](CCC(N)=O)NC(=O)[C@@H](NC(=O)[C@H](C)NC(=O)[C@@H]1CSSC[C@H](NC(=O)[C@H](Cc2c[nH]cn2)NC(=O)CC[C@H](NC(=O)CCCCCCCCCCCCCCCCCCC(=O)O)C(=O)O)C(=O)N[C@@H](CC(N)=O)C(=O)N[C@@H]([C@@H](C)O)C(=O)N[C@@H](C)C(=O)N[C@@H]([C@@H](C)O)C(=O)N1)[C@@H](C)O)C(C)C)C(=O)N[C@@H](CC(C)C)C(=O)N1CCC[C@H]1C(=O)N1CCC[C@H]1C(=O)N[C@H](C(=O)N[C@@H](CC(N)=O)C(=O)N[C@H](C(=O)NCC(=O)N[C@@H](CO)C(=O)N[C@@H](CC(N)=O)C(=O)N[C@H](C(=O)N[C@@H](Cc1ccc(O)cc1)C(N)=O)[C@@H](C)O)C(C)C)[C@@H](C)O [Example 15, N-alpha-[(S)-4-Carboxy-4-(19-carboxynonadecanoylamino)butyryl]-[His1,Glu14,Arg18]-pramlintide] ({C20 diacid-γGlu}-HCNTATCATQRLAEFLVRSSNNFGPILPPTNVGSNTY-NH2; disulfide 2-7 (inferred); C-terminus assumed) | – | – | – | 4.7 | 56 | 59 |
